The target in assay [1] is T1, HCV polymerase (NS5B) type 1a (Hepatitis C virus genotype 1a, UniProt P26664).
T1 construct: made in house; host or cells: Escherichia coli (by the 'similar method' of the 1b enzyme)
In words: Assay of enzyme (HCV polymerase) inhibitory activity, type 1a enzyme. Format: biochemical, HCV type 1a (cloned from the blood of patients). To be noted: HCV polymerase inhibitory activity (IC50), 1a, type 1a enzyme 1.5 μg/ml, 25° C., 60 min. The procedure, abridged: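 IC50 values derive from radioactivity of newly synthesized RNA with versus without test compound. The enzyme was C-terminally truncated type 1a NS5B, 1.5 μg/ml, run 60 min at 25° C with 3H-UTP-labelled nucleotides.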

In assay [2] the target is T2, HCV polymerase (NS5B) type 1b (Hepatitis C virus genotype 1b, UniProt P26663).
T2 construct: a region encoding NS5B (J Virol 1991 March, 65(3), 1105-13, 544 amino acids after deletion of 47 amino acids on the C-terminal); 6xHis (C); made in house; host or cells: Escherichia coli
In words: Assay of enzyme (HCV polymerase) inhibitory activity, type 1b enzyme. The conditions noted are these: HCV polymerase inhibitory activity (IC50), 1b, type 1b enzyme 0.5 μg/ml, 25° C., 60 min. The class given is biochemical, HCV BK strain (type 1b). The procedure, abridged: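 Polymerase activity was followed as radiolabelled UTP incorporation by E. coli-expressed, His-tagged NS5B of HCV type 1b lacking its last 47 residues. Conditions: 2 μM UTP, 50 μM other NTPs, Mg2+ buffer at pH 7.5, 25 °C for 60 min. Inhibition relative to compound-free reactions gave IC50.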

pIC50: −log10 of the molar value.

Usually pIC50 stands for −log10 of the IC50, conventionally taken in molar units. Consider `COc1ccc(CC(=O)N2CCN(S(=O)(=O)c3ccc(C(F)(F)F)cc3)[C@@H](C(=O)NCc3ccc(C(C)C)cc3)C2)cc1` [Example 266, (R)-4-[2-(4-methoxy-phenyl)-acetyl]-1-(4-trifluoromethyl-benzenesulfonyl)-piperazine-2-carboxylic acid 4-isopropyl-benzylamide], for which the pIC50 in assay [1] and in assay [2] was 6.00 to 7.00 throughout.
In the case of `COc1ccccc1CC(=O)N1CCN(S(=O)(=O)c2ccc(C(F)(F)F)cc2)[C@@H](C(=O)NCc2ccc(C(C)C)cc2)C1` [Example 267, (R)-4-[2-(2-methoxy-phenyl)-acetyl]-1-(4-trifluoromethyl-benzenesulfonyl)-piperazine-2-carboxylic acid 4-isopropyl-benzylamide], the values for the pIC50 in assay [1] and in assay [2] were under 6.00 and 6.00 to 7.00, respectively.
The matching figures for `COc1cccc(CC(=O)N2CCN(S(=O)(=O)c3ccc(C(F)(F)F)cc3)[C@@H](C(=O)NCc3ccc(C(C)C)cc3)C2)c1` [Example 268, (R)-4-[2-(3-methoxy-phenyl)-acetyl]-1-(4-trifluoromethyl-benzenesulfonyl)-piperazine-2-carboxylic acid 4-isopropyl-benzylamide]: under 6.00 and 6.00 to 7.00.
Consider `CC(C)c1ccc(CNC(=O)[C@H]2CN(C(=O)Nc3ccccc3Cl)CCN2S(=O)(=O)c2ccc(C(F)(F)F)cc2)cc1` [Example 269, (R)-4-(4-trifluoromethyl-benzenesulfonyl)-piperazine-1,3-dicarboxylic acid 1-[(2-chloro-phenyl)-amide] 3-(4-isopropyl-benzylamide)], for which the pIC50 in assay [1] and in assay [2] was under 6.00 throughout.
Turning to `CC(C)c1ccc(CNC(=O)[C@H]2CN(C(=O)Nc3cccc(Cl)c3)CCN2S(=O)(=O)c2ccc(C(F)(F)F)cc2)cc1` [Example 270, (R)-4-(4-trifluoromethyl-benzenesulfonyl)-piperazine-1,3-dicarboxylic acid 1-[(3-chloro-phenyl)-amide] 3-(4-isopropyl-benzylamide)], the pIC50 in assay [1] was under 6.00; in assay [2] it was 6.00 to 7.00.
The matching figures for `CC(C)c1ccc(CNC(=O)[C@H]2CN(C(=O)Nc3ccc(Cl)cc3)CCN2S(=O)(=O)c2ccc(C(F)(F)F)cc2)cc1` [Example 271, (R)-4-(4-trifluoromethyl-benzenesulfonyl)-piperazine-1,3-dicarboxylic acid 1-[(4-chloro-phenyl)-amide] 3-(4-isopropyl-benzylamide)]: under 6.00 and under 6.00.
The matching figures for `COc1ccccc1NC(=O)N1CCN(S(=O)(=O)c2ccc(C(F)(F)F)cc2)[C@@H](C(=O)NCc2ccc(C(C)C)cc2)C1` [Example 272, (R)-4-(4-trifluoromethyl-benzenesulfonyl)-piperazine-1,3-dicarboxylic acid 3-(4-isopropyl-benzylamide) 1-[(2-methoxy-phenyl)-amide]]: under 6.00 and 6.00 to 7.00.
The matching figures for `COc1cccc(NC(=O)N2CCN(S(=O)(=O)c3ccc(C(F)(F)F)cc3)[C@@H](C(=O)NCc3ccc(C(C)C)cc3)C2)c1` [Example 273, (R)-4-(4-trifluoromethyl-benzenesulfonyl)-piperazine-1,3-dicarboxylic acid 3-(4-isopropyl-benzylamide) 1-[(3-methoxy-phenyl)-amide]]: under 6.00 and 6.00 to 7.00.
In the case of `CC(C)c1ccc(CNC(=O)[C@H]2CN(C(=O)CNC(=O)CCC(=O)O)CCN2S(=O)(=O)c2ccc(C(F)(F)F)cc2)cc1` [Example 274, N-{2-[(R)-3-(4-isopropyl-benzylcarbamoyl)-4-(4-trifluoromethyl-benzenesulfonyl)-piperazin-1-yl]-2-oxo-ethyl}-succinamic acid], the values for the pIC50 in assay [1] and in assay [2] were under 6.00 and 6.00 to 7.00, respectively.
The matching figures for `COC(=O)c1cccc(NC(=O)N2CCN(S(=O)(=O)c3ccc(C(F)(F)F)cc3)[C@@H](C(=O)NCc3ccc(C(C)C)cc3)C2)c1` [Example 275, 3-{[(R)-3-(4-isopropyl-benzylcarbamoyl)-4-(4-trifluoromethyl-benzenesulfonyl)-piperazine-1-carbonyl]-amino}-benzoic acid methyl ester]: 6.00 to 7.00 and 6.00 to 7.00.
The matching figures for `COC(=O)c1ccc(NC(=O)N2CCN(S(=O)(=O)c3ccc(C(F)(F)F)cc3)[C@@H](C(=O)NCc3ccc(C(C)C)cc3)C2)cc1` [Example 276, 4-{[(R)-3-(4-isopropyl-benzylcarbamoyl)-4-(4-trifluoromethyl-benzenesulfonyl)-piperazine-1-carbonyl]-amino}-benzoic acid methyl ester]: 6.00 to 7.00 and 6.00 to 7.00.
The matching figures for `COc1ccc(NC(=O)N2CCN(S(=O)(=O)c3ccc(C(F)(F)F)cc3)[C@@H](C(=O)NCc3ccc(C(C)C)cc3)C2)cc1` [Example 277, (R)-4-(4-trifluoromethyl-benzenesulfonyl)-piperazine-1,3-dicarboxylic acid 3-(4-isopropyl-benzylamide) 1-[(4-methoxy-phenyl)-amide]]: under 6.00 and 6.00 to 7.00.
In the case of `CC(C)c1ccc(CNC(=O)[C@H]2CN(C(=O)Cn3ncnn3)CCN2S(=O)(=O)c2ccc(C(F)(F)F)cc2)cc1` [Example 278, (R)-4-(2-tetrazol-2-yl-acetyl)-1-(4-trifluoromethyl-benzenesulfonyl)-piperazine-2-carboxylic acid 4-isopropyl-benzylamide], the negative-log IC50 (pIC50) in assay [1] and in assay [2] was over 7.00 throughout.
`COCC(=O)N1CCN(S(=O)(=O)c2ccc(C(F)(F)F)cc2)[C@@H](C(=O)NCc2ccc(C(C)C)cc2)C1` [Example 279, (R)-4-(2-methoxy-acetyl)-1-(4-trifluoromethyl-benzenesulfonyl)-piperazine-2-carboxylic acid 4-isopropyl-benzylamide]: the pIC50 in assay [1] and in assay [2] was 6.00 to 7.00 each time.
As to `CC(=O)N1CCN(S(=O)(=O)c2ccc(C(C)C)cc2)[C@@H](C(=O)NCc2ccc(C3CC3)cc2)C1` [Example 280, 4-acetyl-1-(4-isopropyl-benzenesulfonyl)-piperazine-2-carboxylic acid 4-cyclopropyl-benzylamide], the pIC50 in assay [1] and in assay [2] was 6.00 to 7.00 in each case.
For `CCCc1ccc(S(=O)(=O)N2CCN(C(=O)Nc3cccc(OCC(=O)OCC)c3)C[C@@H]2C(=O)NCc2ccc(C(C)C)cc2)cc1` [Example 281, (3-{[(R)-3-(4-isopropyl-benzylcarbamoyl)-4-(4-propyl-benzenesulfonyl)-piperazine-1-carbonyl]-amino}-phenoxy)-acetic acid ethyl ester], the results for the pIC50 in assay [1] and in assay [2] were 6.00 to 7.00 and over 7.00, respectively.
Take `CCCc1ccc(S(=O)(=O)N2CCN(C(=O)Nc3cccc(OCC(=O)O)c3)C[C@@H]2C(=O)NCc2ccc(C(C)C)cc2)cc1` [Example 282, (3-{[(R)-3-(4-isopropyl-benzylcarbamoyl)-4-(4-propyl-benzenesulfonyl)-piperazine-1-carbonyl]-amino}-phenoxy)-acetic acid]: the pIC50 in assay [1] was 6.00 to 7.00; in assay [2], over 7.00.
For the compound `CC(=O)N1CCN(S(=O)(=O)c2ccc(CCC(=O)O)s2)[C@@H](C(=O)NCc2ccc(C(C)C)cc2)C1` [Example 283, 3-{5-[(R)-4-acetyl-2-(4-isopropyl-benzylcarbamoyl)-piperazine-1-sulfonyl]-thiophen-2-yl}-propionic acid], the pIC50 in assay [1] and in assay [2] was under 6.00 each time.
As to `CC(=O)N1CCN(S(=O)(=O)c2ccc(OCC(F)(F)F)cc2)[C@@H](C(=O)NCc2ccc(C(C)C)cc2)C1` [Example 284, (R)-4-acetyl-1-[4-(2,2,2-trifluoro-ethoxy)-benzenesulfonyl]-piperazine-2-carboxylic acid 4-isopropyl-benzylamide], the pIC50 in assay [1] is 6.00 to 7.00; in assay [2], over 7.00.
The matching figures for `CC(C)c1ccc(CNC(=O)[C@H]2CN(C(=O)Nc3ccc(C(=O)O)cc3)CCN2S(=O)(=O)c2ccc(C(F)(F)F)cc2)cc1` [Example 285, 4-{[(R)-3-(4-isopropyl-benzylcarbamoyl)-4-(4-trifluoromethyl-benzenesulfonyl)-piperazine-1-carbonyl]-amino}-benzoic acid]: 6.00 to 7.00 and over 7.00.
The matching figures for `CC(C)c1ccc(CNC(=O)[C@H]2CN(C(=O)Nc3cccc(C(=O)O)c3)CCN2S(=O)(=O)c2ccc(C(F)(F)F)cc2)cc1` [Example 286, 3-{[(R)-3-(4-isopropyl-benzylcarbamoyl)-4-(4-trifluoromethyl-benzenesulfonyl)-piperazine-1-carbonyl]-amino}-benzoic acid]: 6.00 to 7.00 and 6.00 to 7.00.
The matching figures for `CCCc1ccc(S(=O)(=O)N2CCN(C(C)=O)C[C@@H]2C(=O)NCc2ccc(C(C)C)cc2)s1` [Example 287, (R)-4-acetyl-1-(5-propyl-thiophene-2-sulfonyl)-piperazine-2-carboxylic acid 4-isopropyl-benzylamide]: over 7.00 and over 7.00.

The values above are taken from patent publication US8017612B2, “Piperazine compound and use thereof as a HCV polymerase inhibitor” (priority 2006, dated 2011).
